{"source": "patent US20220229065A1", "about": "“SENSORS AND METHODS FOR RAPID MICROBIAL DETECTION” (BAMBU VAULT LLC, priority 2019, published 2022)", "key": {"[1]": {"assay": "Retention of Epolight 1117 tetrakis aminium dye in particles during emulsification and evaporation", "assay_type": "physicochemical", "conditions": "retention in the particles during emulsion and evaporation process; surfactant as labelled", "excerpt": "In the emulsion method of encapsulation, a surfactant is necessary to help keep the emulsion stable. While Aerosol® TR-70 (sodium bis(tridecyl) sulfosuccinate) could be used as an emulsifier to prepare polymer particles encapsulating Epolight™ 1117 tetrakis aminium dye, TR-70 only provided limited stabilization effects on the tetrakis aminium dye. […] Reducing the amount of SDS in the aqueous phase led to lower Epolight™ 1117 retention and larger particle size (Table 2)."}, "β-lactamase blend": {"tested_on": "β-lactamase blend", "assay": "Reaction of Formula (12) conjugate with β-lactamase (color change in vial)", "assay_type": "biochemical", "experimental": "(§1) In four different vials, compound 4 (1.0 mg in each vial) was dissolved in DMSO (0.3 mL). To one vial, 25 μL of β-lactamase blend was added. To another vial 25 μL PBS was added as the negative control. To the other two vials 25 μL of papain and chymotrypsin were added separately."}, "chymotrypsin": {"tested_on": "chymotrypsin", "assay": "Reaction of Formula (12) conjugate with chymotrypsin (color change, selectivity control)", "assay_type": "biochemical", "conditions": "1.0 mg in 0.3 mL DMSO + 25 μL chymotrypsin", "experimental": "as §1"}, "papain": {"biological_target": "T1, papain (Carica papaya, UniProt P00784)", "T1 sequence (P00784 134-345)": "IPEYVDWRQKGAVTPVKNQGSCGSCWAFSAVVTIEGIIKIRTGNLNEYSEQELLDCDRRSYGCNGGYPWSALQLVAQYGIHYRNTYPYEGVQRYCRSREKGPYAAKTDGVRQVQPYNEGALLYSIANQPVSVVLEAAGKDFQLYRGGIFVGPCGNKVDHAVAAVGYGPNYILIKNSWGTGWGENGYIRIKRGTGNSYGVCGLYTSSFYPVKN", "assay": "Reaction of Formula (12) conjugate with papain (color change, selectivity control)", "assay_type": "biochemical", "conditions": "1.0 mg in 0.3 mL DMSO + 25 μL papain", "experimental": "as §1"}, "[2]": {"assay": "Additives that stabilize the dye within the particles", "assay_type": "physicochemical", "conditions": "antioxidant additive in polymer matrix", "excerpt": "The loading of dyes within the particles is as high as possible without degrading the cohesion of the polymer. The additives that stabilize the dye within the particles have been studied."}, "[3]": {"conditions": "1.0 mg in 0.3 mL DMSO + 25 μL β-lactamase blend"}}, "data": [{"smiles": "CCCCCCCCCCCCOS(=O)(=O)[O-].[Na+]", "note": "[Sodium dodecyl sulfate, sodium dodecyl sulfate]", "values": [{"measurement": "% Epolight ™ 1117 Retention", "setting": "[1]", "value": "85-90%"}]}, {"smiles": "CCCCCCCCCCCCCOC(=O)CC(C(=O)OCCCCCCCCCCCCC)S(=O)(=O)O.[Na]", "note": "(centres unmarked) [TR-70, sodium bis(tridecyl) sulfosuccinate]", "values": [{"measurement": "% Epolight ™ 1117 Retention", "setting": "[1]", "value": 50, "unit": "%"}]}, {"smiles": "COc1ccc(COC(=O)C2=C(CSc3ccc4c(c3)Oc3cc(SCC5=C(C(=O)OCc6ccc(OC)cc6)N6C(=O)[C@H](NC(=O)Cc7ccccc7)[C@@H]6SC5)ccc3C43OC(=O)c4ccccc43)CS[C@H]3[C@@H](NC(=O)Cc4ccccc4)C(=O)N23)cc1", "note": "[compound 4]", "values": [{"measurement": "color change with PBS (negative control, no enzyme)", "setting": "β-lactamase blend; 1.0 mg in 0.3 mL DMSO + 25 μL PBS", "value": "did not change color at all"}, {"measurement": "color change after β-lactamase addition (onset)", "setting": "β-lactamase blend; [3]", "value": "started changing color from light yellow to brownish-red within a minute"}, {"measurement": "time to very strong color change after β-lactamase addition", "setting": "β-lactamase blend; [3]", "value": "less than 5 minutes"}, {"measurement": "color change after chymotrypsin addition", "setting": "chymotrypsin", "value": "almost no color change even after 30 minutes"}, {"measurement": "color change after papain addition", "setting": "papain", "value": "slightly changed color to light brown"}]}, {"smiles": "Cc1cc(C(C)(C)C)c(O)c(C)c1Cn1c(=O)n(Cc2c(C)cc(C(C)(C)C)c(O)c2C)c(=O)n(Cc2c(C)cc(C(C)(C)C)c(O)c2C)c1=O", "note": "[Cyanox® 1790, 1,3,5-tris(4-tert-butyl-3-hydroxy-2,6-dimethylbenzyl)-1,3,5-triazine-2,4,6-(1H,3H,5H)-trione]", "values": [{"measurement": "impact on dye stability within the particles", "setting": "[2]", "value": "positive impact"}]}]}
